Patent US10311582B2, “Image processing apparatus and method for evaluating objects in an image” (Sony Corporation, priority 2010, dated 2019)

Test system: cultured cardiomyocytes
Assay: Pulsations of cultured cardiomyocytes before and after drug administration, by motion detection on moving images (drug evaluation apparatus)
Type: cell-based
Details: for interval / timing of the pulsations (peak interval, rhythm of the pulsations): before vs after drug administration (after a predetermined time elapses), predetermined part of the observation region
Experimental: FIG. 24 is a block diagram illustrating a main configuration example of a drug evaluation apparatus. The drug evaluation apparatus 1300 illustrated in FIG. 24 is an apparatus that evaluates the impact (effects, side effects, and the like) of a drug using the motions of the cultured cardiomyocytes 500 to which the drug is administered.
The imaging unit 1101 images the cultured cardiomyocytes 500 before drug administration and after drug administration.
More specifically, the evaluation index data generating unit 1303 performs, for example, between frame images of the evaluation object image data which are the moving images of the cultured cardiomyocytes 500, motion detection (generation of motion vectors) of the cultured cardiomyocytes 500 for each of the blocks which are partial regions into which the entire region of the frame image is divided. That is, the evaluation index data generating unit 1303 performs the motion detection of each of the blocks for a predetermined duration (for a predetermined number of frames). This duration may be a time of the moving images imaged by the imaging unit 1101 or may be shorter than the time.
The evaluation index data generating unit 1303 further obtains a motion amount (the length of the motion vector) of each of the generated motion vectors. That is, the evaluation index data generating unit 1303 generates the motion amounts of each of the frames of each of the blocks for a predetermined duration.
When the motion amounts of the frames of a certain block obtained by the evaluation index data generating unit 1303 are arranged in time series, for example, the graph shown in FIG. 25 is obtained. FIG. 25 is a diagram showing a form of a change in the motion amount of a certain block with respect to time obtained by the evaluation index data generating unit 1303, that is, an example of a form of the pulsations of cells.
In the graph of FIG. 25, the horizontal axis represents the elapsed time (the number of frames), and the vertical axis represents the motion amount (pixels/frame). A curve 1311 (before) represents the pulsations of the cultured cardiomyocytes 500 before drug administration, and a curve 1312 (after) represents the pulsations of the cultured cardiomyocytes 500 after drug administration. In addition, in the graph of FIG. 25, a waveform of a single pulsation (a contraction and a relaxation) is shown.
The pulsations of cardiomyocytes include contractions and relaxations, and in the curve 1311 and the curve 1312, the crest formed on the left means a “contraction” operation, and the crest formed on the right means a “relaxation” operation. A point P1-1 represents the peak of the contraction of the curve 1311 (before), and a point P1-2 represents the peak of the relaxation of the curve 1311 (before). A point P2-1 represents the peak of the contraction of the curve […] (after), and a point P2-2 represents the peak of the relaxation of the curve 1312 (after).
FIG. 31 is a diagram showing an example of forms of pulsations before and after drug administration. All the 8 graphs shown in FIG. 31 are observation results of forms (changes in the motion amount absolute value with respect to time) of pulsations of a predetermined part in an observation region of the cultured cardiomyocytes 500. The horizontal axis represents the time (sec), and the vertical axis represents the motion amount absolute value (pixcel/frame) between frames. That is, the amplitudes shown in each of the graphs represents the pulsations of the cultured cardiomyocytes 500.
The graphs on the left of FIG. 31 represent forms of the pulsations before drug administration, and the graphs on the right represent forms of the pulsations after drug administration (after a predetermined time elapses after the administration).
In addition, FIG. 32 is a diagram showing an example of forms of variations of the pulsations before and after drug administration. […]

[1] = FIG. 31, before vs after drug administration
[2] = FIG. 32, overlapped pulsations after drug administration

SMILES	interval / timing of the pulsations (peak interval, rhythm of the pulsations) (FIG. 31)	variations of the pulsations (overlapped waveforms of repeated pulsations) (FIG. 32, before vs after drug administration)	motion amount absolute value at the peaks [1]	waveform of the relaxation (the width of the pulsation) [1]	variations of the height of the peak in the waveform of the contraction [2]	variations of the waveform of the relaxation (magnitude, time and number of appearance of the peak, width (QT elongation)) [2]
CC(=O)Oc1ccccc1C(=O)O [aspirin, acetylsalicylic acid]	does not have a significant impact	do not have significant variations				
CC(C)NCC(O)c1ccc(NS(C)(=O)=O)cc1 (racemic) [DL-sotalol]	the timing of the pulsation becomes unstable		becomes unstable (has variations)	changes (becomes unstable)	also has significant variations	has significant variations
CC1(C)[C@@H](O)CC[C@]2(C)[C@H]3C(=O)C=C4[C@@H]5C[C@@](C)(C(=O)O)CC[C@]5(C)CC[C@@]4(C)[C@]3(C)CC[C@@H]12 [18-β-glycyrrhetinic acid]	become unstable (have variations)		become unstable (have variations)		has significant variations	
